# Tested on: subjects with insomnia
# Assay: 201 Study: polysomnography (SE, LPS, WASO) dose-response
# Format: in vivo, human
# Procedure: This was a multi-center, randomized, double-blind, adaptive design, dose-response study in subjects with insomnia. Subjects were randomized to 1 of 6 doses of compound A (1 mg, 2.5 mg, 5 mg, 10 mg, 15 mg and 25 mg) or placebo.
# The study had 2 phases: Prerandomization and Randomization. The Prerandomization Phase lasted up to 21 days and consisted of a Screening Period (Days-21 to -2) and a Baseline Period (Day-1). After the Baseline Period, all eligible subjects were randomized in a double-blind manner to receive compound A or placebo for 15 nights during the Treatment Period (Days 1 to 15). All subjects then received placebo in a single-blind manner, for 2 nights (Days 16 to 17) during the Rebound Insomnia Assessment Period (Days 16 to 18). […] All subjects came to the clinic for screening procedures. During the Screening Period, subjects completed the Sleep Diary each day. Polysomnographic sleep was measured during the Screening Period on 2 consecutive nights between Day-9 and Day-3. The 8-hour polysomnograms (PSGs) were started at the median habitual bedtime calculated from responses on the Sleep Diary, which were completed for 7 days before the first PSG night. These recordings served as both eligibility screening PSGs and as Baseline PSGs. Subjects could leave the clinic between the screening/Baseline PSG nights.
# All subjects returned to the clinic on Day-1 for Baseline Period procedures. They remained in the clinic until Day 3. Morning assessments on Day 1 provided the Baseline values for the KSS, the Digit Symbol Substitution Test (DSST), and the Reaction Time Index (RTI). Assessments at 6 hours after waketime provided the Baseline values for the Waking Function Battery (WFB), and the Profile of Mood States-Brief (POMS-B). Subjects were then randomized to receive 1 of 6 doses of compound A or placebo for the next 15 days. Study drugs were tablets containing compound A-matched placebo or compound A of 1 mg, 2.5 mg, 5 mg, or 10 mg and to be ingested 30 minutes before the median habitual bedtime calculated from their Sleep Diary responses during the Screening Period. An 8-hour PSG, starting at the same bedtime as used for the screening and Baseline PSG nights, was recorded on the first 2 treatment nights (Days 1 and 2). The Sleep Diary continued to be completed each day in the clinic, and assessments of insomnia severity (ISI), next-day residual effects (KSS, DSST, and RTI) were conducted while subjects were in the clinic. On specified study days, plasma concentrations of compound A were assessed while subjects were in the clinic in the morning after awakening and at trough just before dosing.
# Subjects continued to take compound A or placebo 30 minutes before their anticipated, self-selected bedtime and continued to complete the Sleep Diary each day while at home during the Treatment Period. On Day 14 of the Treatment Period, subjects returned to the clinic. They remained in the clinic for 4 nights and the intervening days until Day 18. Eight-hour PSGs were recorded each night in the clinic, to start at the median habitual bedtime calculated from responses on the Sleep Diary completed on Days 3 to 13. The Sleep Diary continued to be completed each day in the clinic, and the ISI, KSS, DSST, RTI, were administered at prespecified time points during the daytime hours.
# In Table 5, “Baseline” was defined as the mean of the screening PSG 1 and 2, within −9 to −3 days of randomization. “LS Means Diff” refers to the differences between LS Means of Placebo and each compound A dose, “95% CI” means to 95% CI of LS Means Diff. “p-value” was analyzed using analysis of covariance (ANCOVA) with baseline as a covariate.
# In Table 7, “Baseline” was defined as the mean of the screening PSG 1 and 2, within −9 to −3 days of randomization. “p-value” was analyzed using analysis of covariance (ANCOVA) with baseline as a covariate.
# In Table 8, “Baseline” was defined as the mean of the screening PSG 1 and 2, within −9 to −3 days of randomization. […]
# [1] = Days 14 & 15 minus Days 1 & 2, 1 mg nightly
# [2] = Days 14 & 15 minus Days 1 & 2, 2.5 mg nightly
# [3] = Days 14 & 15 minus Days 1 & 2, 5 mg nightly
# [4] = Days 14 & 15 minus Days 1 & 2, 10 mg nightly
# [5] = Days 14 & 15 minus Days 1 & 2, 15 mg nightly
# [6] = Days 14 & 15 minus Days 1 & 2, 25 mg nightly
smiles,measurement,setting,value
"Cc1ncc(OC[C@@]2(c3cccc(F)c3)C[C@H]2C(=O)Nc2ccc(F)cn2)c(C)n1 [Compound A, (1R,2 S)-2-(((2,4-dimethylpyrimidin-5-yl)oxy)methyl)-2-(3-fluorophenyl)-N-(5-fluoropyridin-2-yl) cyclopropanecarboxamide]","Change from Baseline in LPS, Mean of Days 1 & 2: Geometric Mean Ratio (compound A/placebo)",1 mg nightly,0.77
same,"Change from Baseline in LPS, Mean of Days 14 & 15: Geometric Mean Ratio (compound A /placebo)",1 mg nightly,0.73
same,"Change from Baseline in SE, Mean of Days 1 & 2: LS Means Diff vs placebo",1 mg nightly,4.57%
same,"Change from Baseline in SE, Mean of Days 1 & 2: Mean",1 mg nightly,21.1%
same,"Change from Baseline in SE, Mean of Days 14 & 15: LS Means Diff vs placebo",1 mg nightly,0.34%
same,"Change from Baseline in SE, Mean of Days 14 & 15: Mean",1 mg nightly,17.5%
same,"Change from Baseline in WASO, Mean of Days 1 & 2: LS Means Diff vs placebo",1 mg nightly,-11.1 min
same,"Change from Baseline in WASO, Mean of Days 1 & 2: Mean",1 mg nightly,-60.9 min
same,"Change from Baseline in WASO, Mean of Days 14 & 15: LS Means Diff vs placebo",1 mg nightly,5.7 min
same,"Change from Baseline in WASO, Mean of Days 14 & 15: Mean",1 mg nightly,-43.6 min
same,"LPS geometric mean ratio vs placebo, significance","1 mg, Mean of Days 1/2",not statistically significant
same,"Change from Baseline in LPS, Mean of Days 1 & 2: Geometric Mean Ratio (compound A/placebo)",2.5 mg nightly,0.55
same,"Change from Baseline in LPS, Mean of Days 14 & 15: Geometric Mean Ratio (compound A /placebo)",2.5 mg nightly,0.49
same,"Change from Baseline in SE, Mean of Days 1 & 2: LS Means Diff vs placebo",2.5 mg nightly,4.44%
same,"Change from Baseline in SE, Mean of Days 1 & 2: Mean",2.5 mg nightly,21.3%
same,"Change from Baseline in SE, Mean of Days 14 & 15: LS Means Diff vs placebo",2.5 mg nightly,3.94%
same,"Change from Baseline in SE, Mean of Days 14 & 15: Mean",2.5 mg nightly,20.7%
same,"Change from Baseline in WASO, Mean of Days 1 & 2: LS Means Diff vs placebo",2.5 mg nightly,-2.3 min
same,"Change from Baseline in WASO, Mean of Days 1 & 2: Mean",2.5 mg nightly,-51.1 min
same,"Change from Baseline in WASO, Mean of Days 14 & 15: LS Means Diff vs placebo",2.5 mg nightly,-2.3 min
same,"Change from Baseline in WASO, Mean of Days 14 & 15: Mean",2.5 mg nightly,-48.9 min
same,"Change from Baseline in LPS, Mean of Days 1 & 2: Geometric Mean Ratio (compound A/placebo)",5 mg nightly,0.60
same,"Change from Baseline in LPS, Mean of Days 14 & 15: Geometric Mean Ratio (compound A /placebo)",5 mg nightly,0.47
same,"Change from Baseline in SE, Mean of Days 1 & 2: LS Means Diff vs placebo",5 mg nightly,5.74%
same,"Change from Baseline in SE, Mean of Days 1 & 2: Mean",5 mg nightly,21.2%
same,"Change from Baseline in SE, Mean of Days 14 & 15: LS Means Diff vs placebo",5 mg nightly,5.76%
same,"Change from Baseline in SE, Mean of Days 14 & 15: Mean",5 mg nightly,21.0%
same,"Change from Baseline in WASO, Mean of Days 1 & 2: LS Means Diff vs placebo",5 mg nightly,-11.3 min
same,"Change from Baseline in WASO, Mean of Days 1 & 2: Mean",5 mg nightly,-55.6 min
same,"Change from Baseline in WASO, Mean of Days 14 & 15: LS Means Diff vs placebo",5 mg nightly,-10.7 min
same,"Change from Baseline in WASO, Mean of Days 14 & 15: Mean",5 mg nightly,-52.2 min
same,"LPS, Days 1/2 compared to Days 14/15",10 mg,further improvement in LPS over time
same,"Change from Baseline in LPS, Mean of Days 1 & 2: Geometric Mean Ratio (compound A/placebo)",10 mg nightly,0.54
same,"Change from Baseline in LPS, Mean of Days 14 & 15: Geometric Mean Ratio (compound A /placebo)",10 mg nightly,0.32
same,"Change from Baseline in SE, Mean of Days 1 & 2: LS Means Diff vs placebo",10 mg nightly,8.09%
same,"Change from Baseline in SE, Mean of Days 1 & 2: Mean",10 mg nightly,21.9%
same,"Change from Baseline in SE, Mean of Days 14 & 15: LS Means Diff vs placebo",10 mg nightly,7.78%
same,"Change from Baseline in SE, Mean of Days 14 & 15: Mean",10 mg nightly,21.7%
same,"Change from Baseline in WASO, Mean of Days 1 & 2: LS Means Diff vs placebo",10 mg nightly,-19.8 min
same,"Change from Baseline in WASO, Mean of Days 1 & 2: Mean",10 mg nightly,-56.7 min
same,"Change from Baseline in WASO, Mean of Days 14 & 15: LS Means Diff vs placebo",10 mg nightly,-14.7 min
same,"Change from Baseline in WASO, Mean of Days 14 & 15: Mean",10 mg nightly,-48.5 min
same,"Change from Baseline in LPS, Mean of Days 1 & 2: Geometric Mean Ratio (compound A/placebo)",15 mg nightly,0.52
same,"Change from Baseline in LPS, Mean of Days 14 & 15: Geometric Mean Ratio (compound A /placebo)",15 mg nightly,0.41
same,"Change from Baseline in SE, Mean of Days 1 & 2: LS Means Diff vs placebo",15 mg nightly,10.06%
same,"Change from Baseline in SE, Mean of Days 1 & 2: Mean",15 mg nightly,23.8%
same,"Change from Baseline in SE, Mean of Days 14 & 15: LS Means Diff vs placebo",15 mg nightly,7.89%
same,"Change from Baseline in SE, Mean of Days 14 & 15: Mean",15 mg nightly,21.2%
same,"Change from Baseline in WASO, Mean of Days 1 & 2: LS Means Diff vs placebo",15 mg nightly,-29.3 min
same,"Change from Baseline in WASO, Mean of Days 1 & 2: Mean",15 mg nightly,-66.1 min
same,"Change from Baseline in WASO, Mean of Days 14 & 15: LS Means Diff vs placebo",15 mg nightly,-20.8 min
same,"Change from Baseline in WASO, Mean of Days 14 & 15: Mean",15 mg nightly,-53.4 min
same,"Change from Baseline in LPS, Mean of Days 1 & 2: Geometric Mean Ratio (compound A/placebo)",25 mg nightly,0.39
same,"Change from Baseline in LPS, Mean of Days 14 & 15: Geometric Mean Ratio (compound A /placebo)",25 mg nightly,0.34
same,"Change from Baseline in SE, Mean of Days 1 & 2: LS Means Diff vs placebo",25 mg nightly,10.13%
same,"Change from Baseline in SE, Mean of Days 1 & 2: Mean",25 mg nightly,22.7%
same,"Change from Baseline in SE, Mean of Days 14 & 15: LS Means Diff vs placebo",25 mg nightly,8.87%
same,"Change from Baseline in SE, Mean of Days 14 & 15: Mean",25 mg nightly,21.4%
same,"Change from Baseline in WASO, Mean of Days 1 & 2: LS Means Diff vs placebo",25 mg nightly,-25.8 min
same,"Change from Baseline in WASO, Mean of Days 1 & 2: Mean",25 mg nightly,-62.3 min
same,"Change from Baseline in WASO, Mean of Days 14 & 15: LS Means Diff vs placebo",25 mg nightly,-21.5 min
same,"Change from Baseline in WASO, Mean of Days 14 & 15: Mean",25 mg nightly,-53.9 min
same,SE (B)-(A) Potential Habituation Effect: LS Means Diff vs placebo,[1],−3.3%
same,SE (B)-(A) Potential Habituation Effect: Mean,[1],−4.0%
same,WASO (B)-(A) Potential Habituation Effect: LS Means Diff vs placebo,[1],13.2 min
same,WASO (B)-(A) Potential Habituation Effect: Mean,[1],18.0 min
same,SE (B)-(A) Potential Habituation Effect: LS Means Diff vs placebo,[2],0.3%
same,SE (B)-(A) Potential Habituation Effect: Mean,[2],−0.5%
same,WASO (B)-(A) Potential Habituation Effect: LS Means Diff vs placebo,[2],-2.9 min
same,WASO (B)-(A) Potential Habituation Effect: Mean,[2],2.2 min
same,SE (B)-(A) Potential Habituation Effect: LS Means Diff vs placebo,[3],1.0%
same,SE (B)-(A) Potential Habituation Effect: Mean,[3],0.1%
same,WASO (B)-(A) Potential Habituation Effect: LS Means Diff vs placebo,[3],-2.9 min
same,WASO (B)-(A) Potential Habituation Effect: Mean,[3],2.7 min
same,SE (B)-(A) Potential Habituation Effect: LS Means Diff vs placebo,[4],0.3%
same,SE (B)-(A) Potential Habituation Effect: Mean,[4],−0.7%
same,WASO (B)-(A) Potential Habituation Effect: LS Means Diff vs placebo,[4],2.8 min
same,WASO (B)-(A) Potential Habituation Effect: Mean,[4],9.3 min
same,SE (B)-(A) Potential Habituation Effect: LS Means Diff vs placebo,[5],−1.3%
same,SE (B)-(A) Potential Habituation Effect: Mean,[5],−2.3%
same,WASO (B)-(A) Potential Habituation Effect: LS Means Diff vs placebo,[5],5.2 min
same,WASO (B)-(A) Potential Habituation Effect: Mean,[5],11.8 min
same,SE (B)-(A) Potential Habituation Effect: LS Means Diff vs placebo,[6],−1.1%
same,SE (B)-(A) Potential Habituation Effect: Mean,[6],−2.1%
same,WASO (B)-(A) Potential Habituation Effect: LS Means Diff vs placebo,[6],2.7 min
same,WASO (B)-(A) Potential Habituation Effect: Mean,[6],9.3 min
same,LPS (B)-(A) Potential Habituation Effect: Geometric Mean Ratio (compound A/placebo),"Days 14 & 15 vs Days 1 & 2, 1 mg nightly",0.93
same,LPS (B)-(A) Potential Habituation Effect: Geometric Mean Ratio (compound A/placebo),"Days 14 & 15 vs Days 1 & 2, 2.5 mg nightly",0.90
same,LPS (B)-(A) Potential Habituation Effect: Geometric Mean Ratio (compound A/placebo),"Days 14 & 15 vs Days 1 & 2, 5 mg nightly",0.77
same,LPS (B)-(A) Potential Habituation Effect: Geometric Mean Ratio (compound A/placebo),"Days 14 & 15 vs Days 1 & 2, 10 mg nightly",0.60
same,LPS (B)-(A) Potential Habituation Effect: Geometric Mean Ratio (compound A/placebo),"Days 14 & 15 vs Days 1 & 2, 15 mg nightly",0.76
same,LPS (B)-(A) Potential Habituation Effect: Geometric Mean Ratio (compound A/placebo),"Days 14 & 15 vs Days 1 & 2, 25 mg nightly",0.89
same,"WASO, Days 1/2 compared to Days 14/15",all doses,no statistical evidence of an increase or decrease in WASO
same,"LPS geometric mean ratios vs placebo, significance","all other doses (2.5-25 mg), Mean of Days 1/2",evidence of statistical significance
same,"WASO change from baseline vs placebo, significance","mean of Days 1/2, doses of 10 mg and above",statistically significant against placebo
same,"WASO change from baseline vs placebo, significance","mean of Days 14/15, doses 15 mg and above",statistically significant against placebo
